Test results from publication PMC5372468, “Quantitative analysis of molecular partition towards lipid membranes using surface plasmon resonance” (Scientific Reports, 2017).
Several values for one entry are separate records, joined by “and”; a condition that tells them apart may be missing. Equal entries are not always repeated. Where two headings read alike, the source gives them in different places.

What was measured:
[1] = SPR membrane partition on L1 sensor chip, deposited POPC SUV (steady-state and dissociation models); format: physicochemical; settings: 10 mM HEPES, 150 mM NaCl, pH 7.4, 25 °C; for Kp (Steady-state Model) / σ (molar lipid:solute ratio at membrane saturation, Steady-state Model): SPR Biacore X100, L1 chip, association 200 s at 5 μL/min, ±SD, three independent replicates; for Kp (Steady-state Model): POPC SUV (50 nm extrusion), 0.25-700 μM solute, equation (S22) fitted to RUS/RUL vs [S]W, full concentration range; for σ (molar lipid:solute ratio at membrane saturation, Steady-state Model) / Kp (linear partition model, equation (S23)): POPC SUV; for σ (molar lipid:solute ratio at membrane saturation, Steady-state Model): equation (S22); for Kp (linear partition model, equation (S23)): SPR, L1 chip, equation (S23) fitted to the low-concentration linear region only
Method: Lyophilized ENF and KTP were solubilized in 10 mM HEPES, 150 mM NaCl, pH 7.4 buffer to a 1 mg/mL stock solution concentration. Purified F63 stock solutions (~1 mg/mL) were prepared in the same buffer. Lyophilized HRC4 was first solubilized in DMSO to 40 mg/mL, then diluted in 10 mM HEPES, 150 mM NaCl, pH 7.4 buffer for the experiments. The final DMSO content was maintained at 2% (v/v) in all HRC4 experiments. ENF, KTP and HRC4 stock solutions were sonicated in an ultrasonic bath for a 10 min period.
Small unilamellar vesicles (SUV) suspensions were prepared as described before. Briefly, the lipid mixture was dissolved in chloroform in a round bottom flask. Chloroform was evaporated under a constant nitrogen flow. The resulting lipid film was dried in vacuum, overnight. A multilamellar vesicle suspension (MLV) was obtained after lipid film rehydration with 10 mM HEPES, 150 mM NaCl, pH 7.4 buffer and a series of 10 freeze/thaw cycles. MLV suspensions were extruded through a 50 nm track-etched polycarbonate membrane from Whatman/GE Healthcare (Maidstone, United Kingdom). Extrusion was performed in a LiposoFast-Basic plus Stabilizer setup from Avestin (Mannheim, Germany). POPC, POPC:Chol (2:1), POPC:Chol:SM […] and POPC:DPPC (1:1) mixtures were prepared. SUV hydrodynamic diameter (DH) and sample polydispersity were characterized through dynamic light scattering (DLS, Supplementary Fig. S1).
SPR experiments were carried out in a Biacore X100 apparatus from GE Healthcare. Temperature was set at 25 °C for all experiments. A 10 mM HEPES, 150 mM NaCl, pH 7.4 solution was used as running buffer for F63, ENF and KTP experiments. Alternatively, 10 mM HEPES, 150 mM NaCl, pH 7.4 containing 2% (v/v) DMSO was used for HRC4 experiments. The flow system was primed three times before initiating an experiment. The L1 sensor chip was used in all experiments. The sensor chip surface was rinsed with three injections of 20 mM CHAPS before SUV deposition. 1 mM lipid SUV samples were injected over the L1 sensor chip for 2400 s, at a 2 μL/min flow speed. Typical RU values for POPC, POPC:Chol (2:1), and POPC:Chol:SM (1:1:1) SUV depositions were ~8000, ~10000 and ~10500, respectively. Loose vesicles were removed with a 36 s injection of 10 mM NaOH at 50 μL/min. F63, ENF and KTP at defined concentrations (between 0.25 and 700 μM) were injected over pre-formed lipid vesicle-coated surfaces at 5 μL/min, for a total of 200 s (association phase). Samples were also injected at 30 μL/min to confirm the absence of mass transfer effects. Solutes were allowed to dissociate for 800 s. L1 sensor chip surface regeneration was performed with sequential injections of 20 mM CHAPS (5 μL/min for 60 s), 0.5% (w/v) SDS (5 μL/min for 60 s), 10 mM NaOH containing 20% (v/v) methanol (50 μL/min for 36 s) and 10 mM NaOH (50 μL/min for 36 s). Baseline response values were compared before and after each experiment to evaluate the effectiveness of the surface regeneration.
Raw SPR sensorgram data were collected for both lipid deposition and solute binding. SUV deposition response values were collected from sensorgrams upon reaching a stable response. For each studied molecule, association steady-state response values were collected from individual sensorgrams at t = 200 s. Dissociation response data were collected between 200 and 1000 s of each sensorgram.
The steady-state model is a mathematical approach to rigorously quantify solute membrane partition using current SPR lipid bilayer-solute association response data. The partition formalism of equation (S22), can be directly fitted to RUS/RUL vs [S]W data sets to retrieve Kp and σ values. While σ values are very important for specific applications (membrane-targeting antibiotics, for instance[25]), Kp is a fundamental membrane interaction parameter studied for both endogenous and therapeutic molecules. […]

[2] = partition constant towards POPC membranes, fluorescence spectroscopy, 100 nm-diameter LUV, ±SD, cited from earlier work
[3] = data previously obtained; ref [25]; cited from earlier work
Source text: If only Kp is desired, a simplified version of the steady-state model (equation (S23)) can be applied to the linear region in each partition plot (Fig. 2, right panel insets). We applied the steady-state model in full to determine σ for each molecule in addition to Kp. […] The σ of ENF and KTP were, respectively, 50 and 69.

Molecule	Kp (Steady-state Model) [1]	σ (molar lipid:solute ratio at membrane saturation, Steady-state Model) [1]	Kp (linear partition model, equation (S23)) [1]	Kp (Literature) ([2]; ref [27])	Kp (Literature) ([2]; ref [26])	σ (lipid:solute ratio at membrane saturation) [3]
N=C(N)NCCC[C@H](NC(=O)[C@@H](N)Cc1ccc(O)cc1)C(=O)O [KTP, kyotorphin]	0.10 × 10^3 and 0.10 (±0.01) × 10^3	~69 and 69 and 69.0 (±6.3)	0.06 × 10^3	0.66 × 10^3 and 0.66 (±0.23) × 10^3	–	–
Enfuvirtide	6.41 × 10^3 and 6.41 (±0.50) × 10^3	~50 and 50 and 50.4 (±2.0)	5.29 × 10^3	–	3.20 × 10^3 and 3.20 (±0.20) × 10^3	–
omiganan	–	–	–	–	–	66
